Patent publication US12162890B2 (Novartis AG, priority 2015, dated 2024)

Target: HEK293 cells with stable expression of the GRIN1 gene and tetracycline-inducible expression of the GRIN2B gene (NMDA receptor, NR2B) (Homo sapiens, UniProt Q13224)
Experiment: Fluo-8 Ca2+ flux assay: reversal of Ro 25-6981-mediated suppression of the Ca2+ response to co-agonist (glutamate/glycine); further: test concentration or dose not given here
Assay type: cell-based
Settings: reversal of the Ro 25-6981 suppression of the Ca2+ response to co-agonist (glutamate/glycine)

Chain of HEK293 cells with stable expression of the GRIN1 gene and tetracycline-inducible expression of the GRIN2B gene (NMDA receptor, NR2B) (Q13224 27-1484, other chains not shown): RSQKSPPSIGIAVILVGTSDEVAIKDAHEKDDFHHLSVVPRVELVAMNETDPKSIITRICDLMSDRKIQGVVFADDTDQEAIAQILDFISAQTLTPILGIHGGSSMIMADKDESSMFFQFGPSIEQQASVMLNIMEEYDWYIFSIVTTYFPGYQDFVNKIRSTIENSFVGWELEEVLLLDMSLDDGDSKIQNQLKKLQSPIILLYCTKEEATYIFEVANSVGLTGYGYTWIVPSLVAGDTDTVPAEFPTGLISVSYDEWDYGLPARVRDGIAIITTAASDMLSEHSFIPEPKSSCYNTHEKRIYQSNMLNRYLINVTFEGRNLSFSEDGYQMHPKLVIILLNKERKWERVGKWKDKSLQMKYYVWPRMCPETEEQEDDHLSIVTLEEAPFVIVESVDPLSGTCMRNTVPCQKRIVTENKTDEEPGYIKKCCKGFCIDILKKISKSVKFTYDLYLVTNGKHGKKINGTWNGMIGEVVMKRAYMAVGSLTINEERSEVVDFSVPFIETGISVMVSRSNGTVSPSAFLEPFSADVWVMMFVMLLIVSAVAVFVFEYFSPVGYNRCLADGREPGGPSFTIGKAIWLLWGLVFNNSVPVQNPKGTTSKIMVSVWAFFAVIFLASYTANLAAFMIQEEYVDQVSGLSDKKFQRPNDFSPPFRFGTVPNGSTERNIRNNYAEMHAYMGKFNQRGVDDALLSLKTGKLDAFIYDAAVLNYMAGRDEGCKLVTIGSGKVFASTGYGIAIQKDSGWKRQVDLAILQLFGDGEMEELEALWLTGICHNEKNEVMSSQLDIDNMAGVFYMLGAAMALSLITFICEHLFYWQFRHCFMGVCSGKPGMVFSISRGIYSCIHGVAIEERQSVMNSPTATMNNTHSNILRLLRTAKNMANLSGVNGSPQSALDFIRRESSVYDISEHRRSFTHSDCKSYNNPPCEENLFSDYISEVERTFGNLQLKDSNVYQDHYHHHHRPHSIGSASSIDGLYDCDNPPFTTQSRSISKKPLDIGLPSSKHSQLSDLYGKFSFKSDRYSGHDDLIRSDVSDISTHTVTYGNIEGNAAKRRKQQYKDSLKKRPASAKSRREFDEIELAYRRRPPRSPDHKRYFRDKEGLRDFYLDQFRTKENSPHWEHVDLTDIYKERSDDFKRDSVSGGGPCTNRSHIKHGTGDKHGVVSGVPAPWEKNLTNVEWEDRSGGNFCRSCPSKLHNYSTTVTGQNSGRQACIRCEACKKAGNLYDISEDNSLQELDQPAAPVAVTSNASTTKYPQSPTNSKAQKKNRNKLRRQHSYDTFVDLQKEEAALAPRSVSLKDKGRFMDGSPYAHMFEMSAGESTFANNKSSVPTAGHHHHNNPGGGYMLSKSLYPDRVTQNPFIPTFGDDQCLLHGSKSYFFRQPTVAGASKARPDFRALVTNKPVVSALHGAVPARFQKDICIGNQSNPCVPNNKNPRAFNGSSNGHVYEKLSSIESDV

Row | SMILES | Response Recovered (%)
1 | O=C(Cn1ccc2[nH]cc(-c3ccc(Cl)c(C(F)(F)F)c3)c2c1=O)N1CCCC1 [Example 198, 3-(4-chloro-3-(trifluoromethyl)phenyl)-5-(2-oxo-2-(pyrrolidin-1-yl)ethyl)-1H-pyrrolo[3,2-c]pyridin-4(5H)-one] | 104
2 | O=C(Cn1ccc2scc(-c3ccc(Cl)c(Cl)c3)c2c1=O)N1CC2(COC2)C1 [Example 68, 3-(3,4-dichlorophenyl)-5-(2-oxo-2-(2-oxa-6-azaspiro[3.3]heptan-6-yl)ethyl)thieno[3,2-c]pyridin-4(5H)-one] | 13
3 | CC1(F)CN(C(=O)Cn2ccc3scc(-c4cnc(C#N)c(Cl)c4)c3c2=O)C1 [Example 136, 3-chloro-5-(5-(2-(3-fluoro-3-methylazetidin-1-yl)-2-oxoethyl)-4-oxo-4,5-dihydrothieno[3,2-c]pyridin-3-yl)picolinonitrile] | 17
4 | O=C(Cn1ccc2scc(-c3ccc(F)c(C(F)(F)F)c3)c2c1=O)N1CC(F)(c2ccccc2)C1 [Example 54, 3-(4-fluoro-3-(trifluoromethyl)phen-yl)-5-(2-(3-fluoro-3-phenylazetidin-1-yl)-2-oxoethyl)thieno[3,2-c]pyridin-4(5H)-one] | 17
5 | O=C(Cn1cnc2c(c(-c3ccc(Cl)c(F)c3)cn2CCO)c1=O)N1CCCC1 [Example 197] | 7
6 | O=C(Cn1ccc2scc(-c3cnc(Cl)nc3)c2c1=O)N1CC(F)(CF)C1 [Example 142, 3-(2-chloropyrimidin-5-yl)-5-(2-(3-fluoro-3-(fluoromethyl)azetidin-1-yl)-2-oxoethyl)thieno[3,2-c]pyridin-4(5H)-one] | −4.2
7 | O=C(Cn1cnc2[nH]cc(-c3ccc(Cl)c(Cl)c3)c2c1=O)N1CCC(F)C1 (centres unmarked) [Example 175, 5-(3,4-dichlorophenyl)-3-(2-(3-fluoropyrrolidin-1-yl)-2-oxoethyl)-3H-pyrrolo[2,3-d]pyrimidin-4(7H)-one] | 77
8 | O=C(Cn1cc(CN2CCCC2)c2scc(-c3ccc(Cl)c(Cl)c3)c2c1=O)N1CCC(F)C1 (centres unmarked) [Example 121, 3-(3,4-dichlorophenyl)-5-(2-(3-fluoropyrrolidin-1-yl)-2-oxoethyl)-7-(pyrrolidin-1-ylmethyl)thieno[3,2-c]pyridin-4(5H)-one] | 59
9 | O=C(Cn1nnc2scc(-c3ccc(F)c(Cl)c3)c2c1=O)N1CCCC1 [Example 330, 5-(3-chloro-4-fluorophenyl)-3-(2-oxo-2-(pyrrolidin-1-yl)ethyl)thieno[2,3-d][1,2,3]triazin-4(3H)-one] | 6
10 | O=C(Cn1cnc2ccn(-c3ccc(Cl)cc3)c2c1=O)N1CCCCC1 [Example 377, 5-(4-chlorophenyl)-3-(2-oxo-2-(piperidin-1-yl)ethyl)-3H-pyrrolo[3,2-d]pyrimidin-4(5H)-one] | 1
11 | Cc1cc(-c2cn(C3CC3)c3ccn(CC(=O)N4CC(C)(F)C4)c(=O)c23)ccc1Cl [Example 292, 3-(4-chloro-3-methylphenyl)-1-cyclopropyl-5-(2-(3-fluoro-3-methylazetidin-1-yl)-2-oxoethyl)-1,5-dihydro-4H-pyrrolo[3,2-c]pyridin-4-one] | 140
12 | O=C(Cn1cc(CN2CCC2)c2scc(-c3ccc(Cl)c(Cl)c3)c2c1=O)N1CCC(F)C1 (centres unmarked) [Example 122, 7-(azetidin-1-ylmethyl)-3-(3,4-dichlorophenyl)-5-(2-(3-fluoropyrrolidin-1-yl)-2-oxoethyl)thieno[3,2-c]pyridin-4(5H)-one] | 27
13 | Cc1cn(CC(=O)N2CCC(F)C2)c(=O)c2c(-c3ccc(F)c(C(F)(F)F)c3)cc(Br)n12 (centres unmarked) [Example 412, 6-bromo-8-(4-fluoro-3-(trifluoromethyl)phenyl)-2-(2-(3-fluoropyrrolidin-1-yl)-2-oxoethyl)-4-methylpyrrolo[1,2-a]pyrazin-1(2H)-one] | 38
14 | O=C(Cn1ccc2c(c(-c3ccc(Cl)c(Cl)c3)cn2CCF)c1=O)N1CCC(F)C1 (centres unmarked) [Example 273, 3-(3,4-dichlorophenyl)-1-(2-fluoroethyl)-5-[2-(3-fluoropyrrolidin-1-yl)-2-oxoethyl]-1H,4H,5H-pyrrolo[3,2-c]pyridin-4-one] | 93
15 | O=C(Cn1ncc2scc(-c3ccc(Cl)c(F)c3)c2c1=O)N1CCC(F)C1 (centres unmarked) [Example 342, 3-(4-chloro-3-fluorophenyl)-5-(2-(3-fluoropyrrolidin-1-yl)-2-oxoethyl)thieno[2,3-d]pyridazin-4(5H)-one] | 4
16 | O=C(Cn1ccc2scc(-c3ccc(F)c(Cl)c3)c2c1=O)N1CC(F)(C2CC2)C1 [Example 44, 3-(3-chloro-4-fluorophenyl)-5-(2-(3-cyclopropyl-3-fluoroazetidin-1-yl)-2-oxoethyl)thieno[3,2-c]pyridin-4(5H)-one] | 63

Row | SMILES | Response Recovered (%)
17 | O=C(Cn1ccc2scc(-c3ccc(F)c(C(F)(F)F)c3)c2c1=O)N1CCC(F)C1 (centres unmarked) [Example 11, 3-(4-fluoro-3-(trifluoromethyl)phenyl)-5-(2-(3-fluoropyrrolidin-1-yl)-2-oxoethyl)thieno[3,2-c]pyridin-4(5H)-one] | 99
18 | CCC1(F)CN(C(=O)Cn2ccc3scc(-c4cncc(Cl)n4)c3c2=O)C1 [Example 147, 3-(6-chloropyrazin-2-yl)-5-(2-(3-ethyl-3-fluoroazetidin-1-yl)-2-oxoethyl)thieno[3,2-c]pyridin-4(5H)-one] | −0.39
19 | O=C(Cn1ccc2scc(-c3ccc(Cl)c(Cl)c3)c2c1=O)N1CC(F)(c2ccccc2)C1 [Example 53, 3-(3,4-dichlorophenyl)-5-(2-(3-fluoro-3-phenylazetidin-1-yl)-2-oxoethyl)thieno[3,2-c]pyridin-4(5H)-one] | 24
20 | COC1CN(C(=O)Cn2cnc3csc(-c4ccc(Cl)cc4)c3c2=O)C1 [Example 351, 5-(4-chlorophenyl)-3-(2-(3-methoxyazetidin-1-yl)-2-oxoethyl)thieno[3,4-d]pyrimidin-4(3H)-one] | 1
21 | O=C(Cn1ccc2scc(-c3ccc(Cl)c(F)c3)c2c1=O)N1CC(F)(F)C1 [Example 6, 3-(4-chloro-3-fluorophenyl)-5-(2-(3,3-difluoroazetidin-1-yl)-2-oxoethyl)thieno[3,2-c]pyridin-4(5H)-one] | 41
22 | Cc1nc(-c2ccc(Cl)c(Cl)c2)c2c(=O)n(CC(=O)N3CCC(F)C3)ccn12 (centres unmarked) [Example 429, 1-(3,4-dichlorophenyl)-7-(2-(3-fluoropyrrolidin-1-yl)-2-oxoethyl)-3-methylimidazo[1,5-a]pyrazin-8(7H)-one] | 11
23 | CC1(F)CN(C(=O)Cn2ccc3scc(-c4ccc(F)c(Cl)c4)c3c2=O)C1 [Example 39, 3-(3-chloro-4-fluorophenyl)-5-(2-(3-fluoro-3-methylazetidin-1-yl)-2-oxoethyl)thieno[3,2-c]pyridin-4(5H)-one] | 140
24 | N#Cc1cn(CC(=O)N2CCCC2)c(=O)c2c(-c3ccc(Cl)c(C(F)(F)F)c3)csc12 [Example 99, 3-(4-chloro-3-(trifluoromethyl)phenyl)-4-oxo-5-(2-oxo-2-(pyrrolidin-1-yl)ethyl)-4,5-dihydrothieno[3,2-c]pyridine-7-carbonitrile] | 37
25 | COC1(C)CN(C(=O)Cn2ccc3scc(-c4ccc(F)c(C(F)(F)F)c4)c3c2=O)C1 [Example 64, 3-(4-fluoro-3-(trifluoromethyl)phen-yl)-5-(2-(3-methoxy-3-methylazetidin-1-yl)-2-oxoethyl)thieno[3,2-c]pyridin-4(5H)-one] | 22
26 | O=C(Cn1cnc2[nH]cc(-c3ccc(Cl)c(C(F)(F)F)c3)c2c1=O)N1CCCC1 [Example 148, 5-(4-chloro-3-(trifluoromethyl)phenyl)-3-(2-oxo-2-(pyrrolidin-1-yl)ethyl)-3H-pyrrolo[2,3-d]pyrimidin-4(7H)-one] | 66
27 | O=C(Cn1ccc2cccc(-c3ccc(F)c(Cl)c3)c2c1=O)N1CCCC1 [Example 303, 8-(3-chloro-4-fluorophenyl)-2-(2-oxo-2-(pyrrolidin-1-yl)ethyl)isoquinolin-1(2H)-one] | 46
28 | CCn1cc(-c2ccc(F)c(Cl)c2)c2c(=O)n(CC(=O)N3CCCC3)cnc21 [Example 160, 5-(3-chloro-4-fluorophenyl)-7-ethyl-3-(2-oxo-2-(pyrrolidin-1-yl)ethyl)-3H-pyrrolo[2,3-d]pyrimidin-4(7H)-one] | 42
29 | O=C(Cn1cnc2[nH]nc(-c3ccc(Cl)c(C(F)(F)F)c3)c2c1=O)N1CC(F)(F)C1 [Example 320, 3-(4-Chloro-3-trifluoromethyl-phenyl)-5-[2-(3,3-difluoro-azetidin-1-yl)-2-oxo-ethyl]-1,5-dihydro-pyrazolo[3,4-d]pyrimidin-4-one] | 9
30 | O=C(Cn1cc(CN2CC(F)C2)c2scc(-c3ccc(F)c(Cl)c3)c2c1=O)N1CCC(F)C1 (centres unmarked) [Example 125, 3-(3-chloro-4-fluorophenyl)-7-((3-fluoroazetidin-1-yl)methyl)-5-(2-(3-fluoropyrrolidin-1-yl)-2-oxoethyl)thieno[3,2-c]pyridin-4(5H)-one] | 53
31 | CC1(F)CN(C(=O)Cn2ccc3scc(-c4ccc(Cl)c(C(F)(F)F)c4)c3c2=O)C1 [Example 21, 3-(4-chloro-3-(trifluoromethyl)phenyl)-5-(2-(3-fluoro-3-methylazetidin-1-yl)-2-oxoethyl)thieno[3,2-c]pyridin-4(5H)-one] | 120
32 | Cc1cn(CC(=O)N2CCC(F)C2)c(=O)c2c(-c3ccc(F)c(Cl)c3)ccn12 (centres unmarked) [Example 414, 8-(3-chloro-4-fluorophenyl)-2-(2-(3-fluoropyrrolidin-1-yl)-2-oxoethyl)-4-methylpyrrolo[1,2-a]pyrazin-1(2H)-one] | 112
